The values that follow come from patent US20220184055A1, “CHIAURANIB FOR TREATMENT OF SMALL CELL LUNG CANCER” (SHENZHEN CHIPSCREEN BIOSCIENCES CO., LTD., priority 2019, published 2022).

Assay [1] relates to SCLC. Conditions: combined with best supportive treatment; cited from earlier work.
Assay [2] has as its system advanced solid tumors. The assay is described as follows: Phase I clinical trial of chiauranib in patients with advanced solid tumors. The class given is in vivo, human. Conditions: for objective remission (complete remission CR and partial remission PR): 18 patients, 8 tumor types, oral once daily 10-65 mg dose escalation, RECIST 1.1. As to the method: Test drug: chiauranib capsules, strength: 5 mg, 25 mg, produced by Shenzhen Chipscreen Biosciences, Co., Ltd.
Dosage regimen: The starting dose was 10 mg/day. After the starting dose, according to the modified Fibonacci method, the patients were enrolled in order from low dose to high dose, and the set dose groups were 20 mg, 35 mg, 50 mg, 65 mg . . . dose groups, respectively, until the MTD was determined.
Chiauranib capsules were administered orally, once a day in the morning. Before knowing the analysis data of the effects of food on bioavailability, the drugs were administered on empty stomach.
Number of cases: 18 cases were enrolled.
The prescribed dose of Chiauranib capsules was administered orally on empty stomach once every day, and every 28 days was a treatment cycle; there was no stopping interval during the treatment cycles, and all enrolled patients received the test drug treatment until the disease progressed or intolerable toxicity appeared.
Efficacy evaluation: The clinical benefits of tumor treatment include:
Judgment criteria: The efficacy was evaluated according to the RECIST version 1.1 (2009) standard of solid tumors.
Safety assessment: physical examination, vital signs, ECOG physical score, blood routine, urine routine, 12-lead ECG, blood biochemistry, electrolytes, coagulation function, myocardial enzymes, troponin, TSH, FT3, FT4, amylase, echocardiography, 24-hour urine protein quantification (if necessary), and adverse events were included.
A total of 18 patients were enrolled in the trial, all of which were included in the FAS, SS, and PPS analysis sets. Among the 18 patients, 7 cases (38.9%) had colorectal cancer, 5 cases (27.8%) had non-small cell lung cancer, and 1 case each for gastric cancer, ovarian cancer, thyroid papillary carcinoma, diffuse large B-cell lymphoma, fibrosarcoma, and poorly differentiated renal carcinoma.

Assay [3] concerns recurrent and refractory small cell lung cancer. As to the kind of experiment: Phase Ib clinical trial of chiauranib alone in recurrent and refractory small cell lung cancer. The class given is in vivo, human. Conditions: 50 mg/day QD oral. As to the method:
Test drug: Chiauranib capsules, strength: 5 mg, 25 mg, produced by Shenzhen Chipscreen Biosciences, Co., Ltd.
Dosage regimen: Chiauranib capsules were administered at 50 mg/day, QD (no adjustments to body weight or body surface area), on an empty stomach every morning with water, swallowing whole capsules intact. Continuous administration for 28 days constituted a treatment cycle, and there was no interval between treatment cycles.
Number of cases: 25 cases were enrolled.
The test subjects were administered with 50 mg of Chiauranib capsules orally once a day, every 28 days as a treatment cycle, and there was no stopping interval during the treatment cycles. Throughout the trial period, all subjects continued treatment until any of the following conditions (whichever occurred first) occurred: disease progression, intolerable toxic response, death, withdrawal of informed consent, or loss to follow-up.
Efficacy evaluation: According to the RECIST1.1 standard, evaluation was performed in the baseline period and at the 4th weekend after treatment, and repeated every 8 weeks until the disease progressed. Tumor imaging examinations include CT or MRI of the neck, chest, whole abdomen, and pelvis. Examinations of other parts were carried out when necessary based on clinical indications. The same techniques and methods should be employed for the baseline of the lesion and follow-up assessment and measurement.
Safety assessment: physical examination, vital signs, ECOG fitness score, blood routine, urine routine, 12-lead ECG blood biochemistry, electrolytes, coagulation function, myocardial enzymes, troponin, TSH, FT3, FT4, amylase, echocardiography, 24-hour urine protein quantification (if necessary), and adverse events were included.

Setting [4] is: 20 patients with efficacy evaluation.

The structures appear in SMILES notation. “Also recorded” adds a separate entry of the source.

Turning to `CC[C@@]1(O)C(=O)OCc2c1cc1n(c2=O)Cc2cc3c(CN(C)C)c(O)ccc3nc2-1` [topotecan], the “overall survival, quality of life and improvement of symptoms versus best supportive treatment alone” value in assay [1] is reported as “significantly better”.

Regarding `COc1ccc2c(Oc3ccc4c(C(=O)Nc5ccccc5N)cccc4c3)ccnc2c1` [chiauranib, N-(2-aminophenyl)-6-(7-methoxyquinoline-4-oxo)-1-naphthylamide], the “PR, number of patients” value in assay [2] (8 common tumors, 18 patients evaluated) turned out to be 0. The “objective remission (complete remission CR and partial remission PR)” value in assay [2] is on record as “no objective remission was observed; also recorded: no patients with objective remission were observed”. Moreover, in assay [2] (listed as Chiauranib), the “objective remission (complete remission CR and partial remission PR)” value is “no cases with objective remission were observed”. In assay [3] (setting [4]), the “objective response rate (ORR) / PR (%)” value is 20%; the “patients whose target lesions were reduced by more than 30% from baseline, number” value is 5 patients; the “patients whose target lesions were reduced by more than 30% from baseline, percent” value turned out to be 25%. The “best efficacy evaluation PR, number of patients” value in assay [3] (20 patients with efficacy evaluation of 25 enrolled, RECIST 1.1) was found to be 4 patients.
